Tested on: RhoA
Test: thrombin induced RhoA activation in HUVEC culture (active RhoA pull-down, Western blot)
Assay type: cell-based, human
Settings: 5 U/ml thrombin alone, 5 min
Procedure: The biological effect of the compounds was established in a model using thrombin induced RhoA activation in human umbilical vein endothelial cell (HUVEC) culture.
HUVEC are grown to confluence under standard conditions. Before induction of Rho activity HUVEC were starved for 4 h by using IMDM (Gibco) without growth factor and serum supplements. After the starvation period, 5 U/ml Thrombin (Calbiochem) or 5 U thrombin plus 50 μg/ml of test compound was added to the starvation medium for 1, 5 and 10 min. Active RhoA was isolated using Rho Assay Reagent from Upstate according to manufactures instructions. Isolates were separated on a 15% polyacrylamide gel and blotted on Nitrocellulose-Membrane (Bio-Rad). RhoA was detected by using Anti-Rho (-A, -B, -C), clone55 from Upstate (1:500).

thrombin
Relative RhoA stimulation compared to unstimulated control: 5.6
